“Also recorded” adds a separate entry of the source.
How the values were obtained:
LeNCED1 = target: T1, LeNCED1 (Solanum lycopersicum, UniProt O24023); experiment: In vitro NCED enzyme assay (recombinant LeNCED1 cell-free extract, HPLC, 9′-cis-neoxanthin substrate); assay type: biochemical, tomato; settings: for LeNCED1 (11,12) Inhibition @ 100 μM (%): 100 μM inhibitor, E. coli cell extract with recombinant CCD
T1 construct: made in house; host or cells: E. coli Rosetta (DE3); crude cell-free extract
T1 sequence (O24023 17-605): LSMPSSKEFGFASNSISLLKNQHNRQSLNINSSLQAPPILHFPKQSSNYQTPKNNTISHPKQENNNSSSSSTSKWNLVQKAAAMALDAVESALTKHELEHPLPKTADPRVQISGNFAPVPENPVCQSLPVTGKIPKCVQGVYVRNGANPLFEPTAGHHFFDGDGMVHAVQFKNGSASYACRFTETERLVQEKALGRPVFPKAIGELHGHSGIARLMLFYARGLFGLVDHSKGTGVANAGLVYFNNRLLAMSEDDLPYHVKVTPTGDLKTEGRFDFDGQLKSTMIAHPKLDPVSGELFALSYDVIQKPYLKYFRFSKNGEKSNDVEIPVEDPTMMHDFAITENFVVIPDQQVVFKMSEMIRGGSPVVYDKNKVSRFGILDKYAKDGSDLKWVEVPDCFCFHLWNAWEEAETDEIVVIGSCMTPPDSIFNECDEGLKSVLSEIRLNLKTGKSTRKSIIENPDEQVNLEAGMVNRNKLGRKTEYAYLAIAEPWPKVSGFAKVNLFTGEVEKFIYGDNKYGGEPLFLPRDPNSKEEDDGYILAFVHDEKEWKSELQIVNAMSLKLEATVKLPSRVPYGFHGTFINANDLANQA
Procedure: In vitro NCED enzyme assay—We over-expressed LeNCED1 in E. coli, as an N-terminal His6-fusion protein (supplemental methods). Cell-free extract containing recombinant LeNCED1 was prepared in 100 mM bis-tris buffer (pH 6.7). 15 μl extract was pre-activated by addition of iron(II) sulphate (20 mM, 1 μl) and ascorbic acid (20 mM, 1 μl) on ice for 2 min, prior to use. This aliquot of enzyme was then added to an assay (150 μl total volume) containing 100 mM bis-tris buffer (pH 6.7), 0.05% v/v Triton X-100, 1.0 mg/ml catalase, and 3 μg 9′-cis-neoxanthin. The 9′-cis-neoxanthin substrate was prepared as described in supplemental methods. The enzyme assay was incubated for 15 min in the dark at 20° C. Water (700 μl) was then added, and the products extracted with ethyl acetate (3×1 ml). The organic solvent was removed at reduced pressure, the residue was dissolved in methanol (200 μl), and then 100 μl was injected onto a Phenomenex C18 reverse phase HPLC column, and a gradient of 5-10% methanol in acetonitrile/0.05% triethylamine was applied at 0.5 ml/min over 20 min, detecting at 440 nm. NCED inhibition assays contained 1-100 μM inhibitor; inhibition was calculated from the product formation after 15 min, compared to a control assay with no inhibitor present.
(§1) For the production of cell-free extracts of LeCCD1a and LeNCED1, cultures were grown to an OD of 0.6 at 37° C., then isopropyl β-D-1-thiogalactopyranoside (IPTG) was added to 0.2 mM and the cultures grown overnight at 20° C. The cells (200 ml cultures) were harvested by centrifugation (5000 rpm, 10 min) and the pellet re-suspended in 4 ml PBS, 0.1% Triton-X 100. Lysozyme was added to a final concentration of 25 μg ml^−1 and the solution incubated at room temperature for 15 min before sonication (3×30 s at 18Ω) on ice. The lysate was then centrifuged (13000 rpm, 15 min, 4° C.) and the supernatant used for the assay.
(§2) Specificity of inhibition in vitro for tomato genes LeNCED1 and LeCCD1a—In order to screen the inhibitors against enzymes which cleave carotenoids at the 9,10 position, we used the recombinant tomato LeCCD1a protein (44), because this type of enzyme can be studied using an in vitro colourimetric assay with β-apo-8′-carotenal as substrate (37). To establish the specificity of the inhibitors, they were also tested against the tomato LeNCED1 recombinant protein which cleaves 9-cis carotenoids at the 11,12 position (45). For this enzyme, the cleavage reaction was monitored by C18 reverse phase HPLC, using 9′-cis-neoxanthin as substrate.

LeCCD1a [1] = target: LeCCD1a (Solanum lycopersicum, UniProt Q6E4P5); experiment: In vitro LeCCD1a enzyme assay (recombinant cell-free extract, colourimetric, apo-8′-carotenal substrate); assay type: biochemical, tomato (Solanum lycopersicum); settings: for LeCCD1a (9,10/9′,10′) Inhibition @ 100 μM (%): 100 μM inhibitor; for LeCCD1a (9,10/9′,10′) Inhibition @ 100 μM (%) / IC50: E. coli cell extract with recombinant CCD; for inhibition at 100 µM: read-out: LeCCD1a (9,10/9′,10′) Inhibition @ 100 μM (%); for IC50: read-out: LeCCD1a (9,10/9′,10′) IC50
Chain of LeCCD1a (Solanum lycopersicum, UniProt Q6E4P5) (Q6E4P5 1-545): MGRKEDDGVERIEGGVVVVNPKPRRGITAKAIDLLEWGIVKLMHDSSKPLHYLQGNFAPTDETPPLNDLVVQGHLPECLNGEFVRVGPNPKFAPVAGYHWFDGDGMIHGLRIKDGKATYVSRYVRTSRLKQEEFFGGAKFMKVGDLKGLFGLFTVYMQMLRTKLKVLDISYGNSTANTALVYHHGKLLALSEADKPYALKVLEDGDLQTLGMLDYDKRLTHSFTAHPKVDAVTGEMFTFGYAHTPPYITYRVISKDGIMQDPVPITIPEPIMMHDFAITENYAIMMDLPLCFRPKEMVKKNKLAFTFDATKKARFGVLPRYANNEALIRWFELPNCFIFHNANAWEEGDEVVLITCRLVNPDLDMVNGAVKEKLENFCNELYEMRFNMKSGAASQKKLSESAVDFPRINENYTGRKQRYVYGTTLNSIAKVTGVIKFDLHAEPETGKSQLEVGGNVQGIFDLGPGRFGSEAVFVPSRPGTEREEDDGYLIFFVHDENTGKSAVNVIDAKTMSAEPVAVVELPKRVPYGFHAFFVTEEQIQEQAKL
Procedure: In vitro LeCCD1a enzyme assay—We over-expressed LeCCD1a in E. coli, as a GST-fusion protein (supplemental methods). The in vitro assay of LeCCD1a was based on reported methods (37), and was carried out in a 200 μl total volume in a 96-well microtitre plate, with the signal detected at 485 nm. To prepare substrate solution for each assay, 5 μl of 4% (w/v in ethanol) apo-8′-carotenal (Sigma) was mixed with 25 μl of 4% (w/v in ethanol) β-octylglucoside (Sigma), the ethanol was then evaporated under nitrogen, and the residue dissolved in 150 μl PBS buffer containing 10 mM sodium ascorbate by incubation at 20° C. for 30 min. 50 μl of cell-free extract containing recombinant LeCCD1a was added, and the reactions monitored over 30 min at 20° C.
as §1, §2

whole Arabidopsis plants = experiment: Shoot branching in whole Arabidopsis plants grown in agar; assay type: in vivo; settings: for unintended effects on whole Arabidopsis plants: applied to whole plants; for branching phenotype of whole plants (in words): plants grown under sterile conditions in agar
Procedure: Branching phenotypes of Arabidopsis plants grown in agar media for 45 days supplemented with inhibitor D6. Images are shown: (a) Col-0 (WT) without inhibitor; (b) max3-9 mutant without inhibitor; (c) Col-0 with 100 μM D6. The numbers (d) of rosette branches were quantified. Error bars represent standard error of the mean, n=6 to 12.
Stimulation of shoot branching in whole Arabidopsis plants—Inhibitors were also applied to Arabidopsis whole plants grown under sterile conditions in agar. […] Inhibitor treated plants were intermediate (mean of approximately 2 branches) and so partially mimicked max3-9 (FIG. 6d).

LeCCD1a [2] = experiment: In vivo enzyme assay in β-carotene-producing E. coli expressing LeCCD1a; assay type: cell-based, Solanum lycopersicum; settings: 100 μM inhibitor, 16 hours; FIG. 4
Excerpt: In vivo enzyme assays in E. coli—The genes of interest (supplemental Table S1) were cloned into the vector pET30c (Novagen) fused directly to the initial ATG codon with no tag, or into pGEX-4T such that the gene was fused to an N-terminal GST tag. All genes were full length except AtCCD7, which had the chloroplast signal sequence removed (supplemental methods). […] Therefore, this construct was used in subsequent assays. The plasmids were transferred to the E. coli expression strain BL21(DE3), harbouring pAC-BETA (38), and therefore producing β-carotene.
For each inhibitor assay, 2.5 ml LB media with the appropriate antibiotics (25 μg ml^−1 chloramphenicol and 50 μg ml^−1 kanamycin or 100 μg ml^−1 ampicillin) and 2.5 μM IPTG, was prepared. Inhibitors (0.1 M in 100% ethanol) were added to the media to a final concentration of 100 μM. The media was then inoculated with 0.25 ml of overnight culture (grown at 37° C. with the appropriate antibiotics) and incubated with shaking (200 rpm) at 28° C. for 16 hours. One ml of culture was harvested by microcentrifugation and resuspended thoroughly in 1 ml ethanol containing 0.2% Triton X-100. After vortexing, the extract was incubated at room temperature in the dark for 3 hours, again vortexed and then spun in a microcentrifuge for 5 min at 13000 rpm. The supernatant was removed and the O.D.453-O.D.550 was measured. The amount of β-carotene was calculated using a standard curve generated from a dilution series of β-carotene (Sigma) in ethanol with 0.2% Triton X-100; the absolute levels of β-carotene are shown in FIG. 8. The relative inhibition was calculated by the equation: (Ci−Cc)/(C1−Cc)×100, where Ci is the carotenoid level with inhibitor and CCD present, Cc is the level with CCD but without the inhibitor and C1 is the level in a strain where lacZ is expressed instead of the CCD, and no inhibitor is present. Thus the increase in β-carotene due to inhibition of the CCD […] was expressed relative to the maximum possible β-carotene content when CCD is absent (C1−Cc).
In vivo activity of inhibitors applied to E. coli strains expressing CCDs—Coloured E. coli strains that produce various carotenoids can be constructed by expression of enzymes for carotenoid synthesis (26). Upon co-expression of the appropriate CCD, the bacteria lose their colour due to cleavage of the carotenoids to colourless products (4,6,27). This technique was employed here to further explore the specificity of inhibitors, and to test their activity in vivo. The level of carotenoid in each CCD-expressing strain was compared to the level of the carotenoid in a control strain producing β-carotene but lacking any CCD gene. The difference in the carotenoid levels gave a measure of CCD activity, and inhibition of this activity was measured by addition of inhibitors to the growing medium.
The inhibitors were tested against four β-carotene-producing E. coli strains (supplemental Table S1). Three of the strains expressed highly divergent CCDs that cleave at the 9,10 position: AtCCD7 from Arabidopsis (21) and MmBCO2 from mouse (6) which both cleave at a single site (9,10 or 9′,10′ but not both), and the tomato enzyme LeCCD1a (44) which cleaves at both sites in the same substrate molecule (9,10/9′,10′ activity). The fourth strain expressed another mouse CCD, MmBCO1 (47), which cleaves centrally at 15,15′. […]

Structure (SMILES) | LeNCED1 (11,12) Inhibition @ 100 μM (%) (LeNCED1) | LeCCD1a (9,10/9′,10′) Inhibition @ 100 μM (%) (LeCCD1a [1]) | unintended effects on whole Arabidopsis plants (whole Arabidopsis plants) | inhibition at 100 µM (LeCCD1a [1]) [%] | further results
COc1ccc(C=CC(=O)NO)cc1OC [Compound D12, 3,4-Dimethoxyphenylpropenoyl hydroxamic acid] | 11 | 26 |  |  | 
COc1ccc(CC(=O)N(O)Cc2ccc(F)cc2)cc1OC [Compound D6, N-(4-fluorobenzyl)-3,4-dimethoxyphenylacetyl hydroxamic acid] |  |  | without negative unintended effects on whole plants | > 95 | branching phenotype of whole plants (in words) (whole Arabidopsis plants): bushy appearance; also recorded: largest effect on whole Arabidopsis plants, giving the greatest number of side branches; relative inhibition of LeCCD1a in E. coli (in words) (LeCCD1a [2]): relatively weaker inhibition activity
COc1ccc(C=CC(=O)NO)cc1 [Compound D13, 4-Methoxyphenylpropenoyl hydroxamic acid] | 13 | 46 |  |  | 
COc1ccc(CC(=O)N(O)Cc2ccccc2)cc1OC [Compound D5, N-benzyl-3,4-dimethoxyphenylacetyl hydroxamic acid] |  |  | without negative unintended effects on whole plants | > 95 | branching phenotype of whole plants (in words) (whole Arabidopsis plants): bushy appearance; also recorded: largest effect on whole Arabidopsis plants, giving the greatest number of side branches; relative inhibition of LeCCD1a in E. coli (in words) (LeCCD1a [2]): relatively weaker inhibition activity
COc1ccc(CCC(=O)N(O)Cc2ccccc2)cc1 [Compound D9, N-benzyl-4-methoxyphenylpropionyl hydroxamic acid] |  |  |  | > 95 | 
COc1ccc(CCC(=O)N(O)Cc2ccccc2)cc1OC [Compound D8, N-benzyl-3,4-dimethoxyphenylpropionyl hydroxamic acid] | 40 | 61 |  |  | inhibition of LeNCED1 in vitro (in words) (LeNCED1): greatest inhibition of NCED in vitro; also recorded: best 11,12 inhibitor
O=C(Cc1ccc(O)cc1)N(O)Cc1ccc(F)cc1 [Compound D2, N-(4-fluorobenzyl)-4-hydroxyphenylacetyl hydroxamic acid] |  |  | without negative unintended effects on whole plants | > 95 | branching phenotype of whole plants (in words) (whole Arabidopsis plants): bushy appearance; IC50 (LeCCD1a [1]): 800 to 900 nM
COc1ccc(C(=O)N(O)Cc2ccc(F)cc2)cc1OC [Compound F4, N-(4-fluorobenzyl)-3,4-dimethoxybenzoyl hydroxamic acid] | 0 | 0 |  |  | 
CCCCCCCCN(O)C(=O)CCc1ccc(OC)c(OC)c1 [Compound D10, N-octyl-3,4-dimethoxyphenylpropionyl hydroxamic acid] | 14 | 65 |  |  | 
CCCCCCCCN(O)C(=O)CCc1ccc(OC)cc1 [Compound D11, N-octyl-4-methoxyphenylpropionyl hydroxamic acid] | 15 | 53 |  |  | 
O=C(Cc1ccc(O)c(O)c1)N(O)Cc1ccc(F)cc1 [Compound D3, N-(4-fluorobenzyl)-3,4-dihydroxyphenylacetyl hydroxamic acid] |  |  | negative effects on growth | > 95 | inhibition of LeNCED1 in vitro (in words) (LeNCED1): little or no inhibition of LeNCED1; inhibition of LeCCD1 in vitro (in words) (LeCCD1a [1]): high levels of inhibition of LeCCD1; also recorded: good inhibitors of the 9,10 enzymes in vitro; IC50 (LeCCD1a [1]): 800 to 900 nM

Source: patent publication US9210928B2, “Plant development control composition” (Syngenta Crop Protection, LLC, priority 2008, dated 2015)
